Columns and labels:
[1] = target: T1, rat NaP2b (SLC34A2) (Rattus norvegicus, UniProt Q9JJ09); experiment: Inhibition of NaP2b-mediated Pi (33P) uptake in transfected HEK293 cells, rat NaP2b; assay type: cell-based; details: HEK293 cells transfected with rat NaP2b, 100 uM phosphate, 0.1 nM to 30 uM, read-out: pIC50 range for rat Nap2b (converted)
T1 construct: host or cells: HEK293
T1 sequence (Q9JJ09 1-695): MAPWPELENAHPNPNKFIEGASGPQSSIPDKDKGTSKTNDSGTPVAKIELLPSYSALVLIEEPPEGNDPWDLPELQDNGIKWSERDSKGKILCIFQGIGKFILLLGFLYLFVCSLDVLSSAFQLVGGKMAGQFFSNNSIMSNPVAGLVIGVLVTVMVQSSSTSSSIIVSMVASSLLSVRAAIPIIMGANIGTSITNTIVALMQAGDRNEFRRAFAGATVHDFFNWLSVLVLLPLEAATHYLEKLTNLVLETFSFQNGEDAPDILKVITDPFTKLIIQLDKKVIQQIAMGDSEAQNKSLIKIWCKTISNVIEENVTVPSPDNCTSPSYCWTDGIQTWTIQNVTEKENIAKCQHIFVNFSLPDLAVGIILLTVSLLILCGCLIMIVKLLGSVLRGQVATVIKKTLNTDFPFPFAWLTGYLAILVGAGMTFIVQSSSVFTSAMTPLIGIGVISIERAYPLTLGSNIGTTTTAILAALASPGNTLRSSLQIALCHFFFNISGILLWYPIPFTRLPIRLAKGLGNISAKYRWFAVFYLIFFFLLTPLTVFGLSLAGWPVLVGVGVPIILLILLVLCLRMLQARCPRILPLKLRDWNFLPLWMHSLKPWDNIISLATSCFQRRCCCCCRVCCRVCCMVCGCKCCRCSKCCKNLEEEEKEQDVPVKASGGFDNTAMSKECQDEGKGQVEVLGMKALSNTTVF
Summary of the method: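 HEK293 cells transiently transfected with rat NaP2b; 33P-phosphate uptake measured in sodium or choline buffer (100 uM KH2PO4, PiT-silencing agent, pH 7.4) with compound at twelve concentrations, 0.1 nM–30 uM, in duplicate. Lysed cells counted by scintillation; pIC50 derived from concentration-response.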

[2] = test system: NaPi2b; experiment: Competition with phosphate: Pi uptake assay repeated at 2.1 vs 0.1 mM phosphate; assay type: cell-based; details: potency at 2.1 vs 0.1 mM phosphate
Source text: In certain preferred embodiments, the phosphate transport inhibitors of the present invention are not competitive inhibitors with respect to phosphate of Na/phosphate co-transport. In certain other preferred embodiments, the phosphate transport inhibitors of the invention are non-competitive inhibitors. Non-competitive inhibitors maintain their degree of inhibition irrespective of the local phosphate concentration. This feature is an important aspect in providing an efficient blockade of intestinal transport in postprandial state, where the local concentration of dietary phosphate can attain concentration as high as 10 mM. It is believed that competitive inhibitors are too sensitive to local phosphate concentration and unable to block phosphate uptake following a high phosphorus meal. Various methods are available for determining whether a phosphate transport inhibitor is non-competitive or competitive. For example, a phosphate uptake assay can be performed and the IC50 values for a compound at different phosphate concentrations can be determined (e.g., “Enzyme kinetics”, I. Segel, 1975, John-Wiley & Sons, p. 123). IC50 values for non-competitive inhibitors will remain the same or similar with respect to the phosphate concentration, whereas IC50 values for competitive inhibitors will increase (i.e. lose potency) as phosphate concentration increases. […]

[3] = test system: Sprague-Dawley rats; experiment: In vivo co-dosing in chow (urine P out / P consumed); details: feed or water; rat; drug in chow, nominal 100 mg/kg/day (mean dose per line in table); urine 24-96 h; read-out: Mean % inhibition Urine Pout/P consumed
Source text: Male, 7-week-old Sprague-Dawley rats (Charles-River laboratories international, Hollister, Calif.) were allowed to acclimate for a minimum of 3 days. The experiment was initiated by switching animals to a synthetic diet (0.6% phosphorus and 0.6% calcium, Harlan Teklad TD.84122) for four days. After this time, the animals were placed into metabolic cages for daily monitoring of food and water consumption, as well as urine and fecal collections. Test compounds were incorporated into the powdered diet listed above containing 3% chocolate flavoring (w/w, BioServ #7345) at 1.3 mg test compound per gram of diet to achieve an average daily nominal dose of 100 mg/kg/day. The actual dose received by each animal was later determined by measuring prepared diet consumption and body weight. Urine samples were collected in three daily periods from 24-48, 48-72, and 72-96 hours of drug dosing. […] Phosphorus levels in the urine were determined by anion exchange chromatography using a Dionex ICS-3000 ion chromatography system. […] Elution of urine phosphate ions was monitored via conductivity detector and reported as ppm relative to a standard ion solution containing phosphate. Daily urinary P output relative to the P consumed in the prepared diet for each animal was calculated. […] The differences between the means of control and treated groups were evaluated by t tests. […]

[4] = test system: 5/6 nephrectomy (5/6Nx) rat model of CKD; experiment: In vivo evaluation in CKD rats (5/6 nephrectomy, 0.9% P diet, calcitriol); details: study 1, drug in chow, 2 weeks
Protocol: To assess the ability of selected example compounds to impact the progression of chronic kidney disease (CKD), 5/6 nephrectomy (5/6Nx) rat model of CKD was used. […] 5/6 Nx rats were obtained from Charles River Labs (CRL, Hollister, Calif.). Upon arrival, the surgeries and extent of kidney damage in the animals were assessed by measuring serum creatinine, P, Ca, and BUN. Based on this analysis, rats with inconsistent kidney function were removed from the study and the remainder of the cohort was divided in to evenly stratified test groups. The remaining animals were then placed on the same synthetic diet used in the drug-in-chow studies (Example 350), except the P levels were adjusted to 0.9% P. Drugs are blended into this chow to achieve the required dosing rate. At this time, rats were also started on an activated Vitamin D regimen in which they were injected intraperitoneally with calcitriol at 80 ng/kg three times a week. Once a week, serum was collected via retro orbital bleeding for analysis of serum P and creatinine utilizing an ACE ALERA blood chemistry analyzer. […] Unless otherwise indicated, the data shown is from the serum collected at 2 weeks after initiation of the treatment regimen. In addition, for study #3, during the third week of the study, the animals were placed in metabolic cages for two days, and urine collected for the final 24 hours.

| IC50 [1] | SMILES | Competitive with respect to Pi? [2] | inhibition in vivo at 100 mg/kg/day [3] | Ser CRE [4] | Ser P [4] | FGF23, pg/mL ([4]; serum) |
| --- | --- | --- | --- | --- | --- | --- |
| 1 to 7.94 µM | O=C(O)CCSCc1cccc(C(=O)Nc2ccc(N3CCCCC3)cc2-c2cc(C(=O)NCc3cccc(C(F)(F)F)c3)ccn2)c1 [Example 1.1, 3-(3-((2-(4-((3-(trifluoromethyl)benzyl)carbamoyl)pyridin-2-yl)-4-(piperidin-1-yl)phenyl)carbamoyl)-benzylthio)propanoic acid] | No |  |  |  |  |
| < 1 µM | CCN(CC)c1ccc(NC(=O)c2cccc(C(=O)N(C)CCN3CCOCC3)c2)c(-c2cc(C(=O)NCc3cccc(C(F)(F)F)c3)ccn2)c1 [Example 25, N1-(4-(Diethylamino)-2-(4-((3-(trifluoromethyl)benzyl)carbamoyl)pyridin-2-yl)phenyl)-N3-methyl-N3-(2-morpholinoethyl)isophthalamide] |  | 10 to 30% | 1.3 mg/dL | 10 mg/dL | ~10,000 pg/mL |

Source: patent US9301951B2 (Ardelyx, Inc., priority 2010, dated 2016)
